# Assay results reported in ChEMBL document CHEMBL1130991, “Synthesis and antibacterial activity of [6,5,5] and [6,6,5] tricyclic fused oxazolidinones” (Bioorg Med Chem Lett, 1998).
# What was measured:
# Type in all cases: functional
# [1] = system: Staphylococcus aureus; test: Antibacterial activity against Staphylococcus aureus UC9213
# [2] = system: Streptococcus pneumoniae; test: Antibacterial activity against Streptococcus pneumoniae UC9912
# [3] = system: Staphylococcus aureus; test: Antibacterial activity against Staphylococcus aureus UC12673
# [4] = system: Bacteroides fragilis; test: Antibacterial activity against Bacteroides fragilis UC12199
# [5] = system: Enterococcus faecalis; test: Antibacterial activity against Enterococcus faecalis UC9217
# [6] = system: Staphylococcus epidermidis; test: Antibacterial activity against Staphylococcus epidermidis UC30031UC
# [7] = system: Staphylococcus aureus; test: Effective dose required to inhibit Staphylococcus aureus UC9271 in mice subjected to a lethal systemic infection (when administered orally); conditions: po
# [8] = system: Staphylococcus aureus; test: (§1) Effective dose required to inhibit Staphylococcus aureus UC9213 in mice subjected to a lethal systemic infection (when administered orally); conditions: po
# [9] = system: Mus musculus; test: Compound was evaluated for antibacterial activity against Staphylococcus aureus UC9213 ((methicillin susceptible) in mice administered orally; conditions: po
# [10] = system: Bacteroides fragilis; test: Compound was evaluated for antibacterial activity against Bacteroides fragilis UC12199 UC (Upjohn Culture)
# [11] = system: Mus musculus; test: as §1; conditions: po
compound,measurement,setting,value
CC(=O)NC[C@@H]1OC(=O)N2c3ccc(S(=O)(=O)N(C)C)cc3C[C@@H]12,MIC,[1],64 µg/mL
same,MIC,[2],64 µg/mL
same,MIC,[3],64 µg/mL
same,MIC,[4],> 32 µg/mL
same,MIC,[5],> 64 µg/mL
same,MIC,[6],64 µg/mL
CC(=O)NC[C@H]1CN(c2ccc(C(C)=O)cc2)C(=O)O1 (racemic) [DUP-721],ED50,[7],18.1 mg/kg
same,MIC,[1],2 µg/mL
same,MIC,[2],2 µg/mL
same,MIC,[3],4 µg/mL
same,ED50,[8],9.4 mg/kg
same,MIC,[4],8 µg/mL
same,MIC,[5],8 µg/mL
same,MIC,[6],4 µg/mL
CC(=O)NC[C@@H]1OC(=O)N2c3ccc(N4CCOCC4)cc3C[C@@H]12,MIC,[1],64 µg/mL
same,ED50,[9],> 20 mg/kg
same,MIC,[2],32 µg/mL
same,MIC,[3],64 µg/mL
same,MIC,[4],> 16 µg/mL
same,MIC,[5],128 µg/mL
same,MIC,[6],32 µg/mL
CC(=O)NC[C@@H]1OC(=O)N2c3ccccc3C[C@H]12,MIC,[1],> 32 µg/mL
same,MIC,[2],> 32 µg/mL
same,MIC,[3],> 32 µg/mL
same,MIC,[10],> 32 µg/mL
same,MIC,[5],> 32 µg/mL
same,MIC,[6],> 32 µg/mL
CC(=O)NC[C@@H]1OC(=O)N2c3ccc(C(C)=O)cc3C[C@@H]12,MIC,[1],8 µg/mL
same,ED50,[11],39.5 mg/kg
same,MIC,[5],16 µg/mL
same,MIC,[6],8 µg/mL
CN[C@H](CC(C)C)C(=O)N[C@H]1C(=O)N[C@@H](CC(N)=O)C(=O)N[C@H]2C(=O)N[C@H]3C(=O)N[C@H](C(=O)N[C@H](C(=O)O)c4cc(O)cc(O)c4-c4cc3ccc4O)[C@H](O)c3ccc(c(Cl)c3)Oc3cc2cc(c3O[C@@H]2O[C@H](CO)[C@@H](O)[C@H](O)[C@H]2O[C@H]2C[C@](C)(N)[C@H](O)[C@H](C)O2)Oc2ccc(cc2Cl)[C@H]1O [VANCOMYCIN],MIC,[2],0.5 µg/mL
same,ED50,[11],1.1 mg/kg
same,MIC,[4],> 16 µg/mL
same,MIC,[5],4 µg/mL
same,MIC,[6],0.5 µg/mL
CC(=O)NC[C@@H]1OC(=O)N2c3ccc(C(C)=O)cc3CC[C@@H]12,MIC,[1],> 16 µg/mL
same,MIC,[2],> 16 µg/mL
same,MIC,[3],> 16 µg/mL
same,MIC,[4],> 16 µg/mL
same,MIC,[5],> 16 µg/mL
same,MIC,[6],> 16 µg/mL
"CC(=O)NCC1OC(=O)N2c3ccc(C(C)=O)cc3CC12 (single isomer, unassigned; (+))",MIC,[1],4 µg/mL
same,MIC,[2],4 µg/mL
same,MIC,[3],4 µg/mL
same,MIC,[4],4 µg/mL
same,MIC,[5],4 µg/mL
same,MIC,[6],2 µg/mL
CC(=O)NC[C@@H]1OC(=O)N2c3ccc(-c4cccnc4)cc3CC[C@H]12,MIC,[1],> 64 µg/mL
same,MIC,[2],> 64 µg/mL
same,MIC,[3],> 64 µg/mL
same,MIC,[4],> 32 µg/mL
same,MIC,[5],> 64 µg/mL
same,MIC,[6],> 64 µg/mL
CC(=O)NC[C@@H]1OC(=O)N2c3ccccc3CC[C@@H]12,MIC,[1],> 64 µg/mL
same,MIC,[2],> 64 µg/mL
same,MIC,[3],> 64 µg/mL
same,MIC,[4],> 32 µg/mL
same,MIC,[5],> 64 µg/mL
same,MIC,[6],> 64 µg/mL
CC(=O)NC[C@@H]1OC(=O)N2c3ccccc3C[C@@H]12,MIC,[1],> 32 µg/mL
same,MIC,[2],> 32 µg/mL
same,MIC,[3],> 32 µg/mL
same,MIC,[4],> 32 µg/mL
same,MIC,[5],> 32 µg/mL
same,MIC,[6],> 32 µg/mL
CC(=O)NC[C@@H]1OC(=O)N2c3ccc(-c4ccc(C#N)cc4)cc3C[C@@H]12,MIC,[1],4 µg/mL
same,MIC,[2],2 µg/mL
same,MIC,[3],4 µg/mL
same,ED50,[11],17.1 mg/kg
same,MIC,[4],32 µg/mL
same,MIC,[5],2 µg/mL
same,MIC,[6],2 µg/mL
CC(=O)NC[C@@H]1OC(=O)N2c3ccccc3CC[C@H]12,MIC,[1],> 64 µg/mL
same,MIC,[2],> 64 µg/mL
same,MIC,[3],> 64 µg/mL
same,MIC,[4],> 32 µg/mL
same,MIC,[5],> 64 µg/mL
same,MIC,[6],> 64 µg/mL
CC(=O)NC[C@@H]1OC(=O)N2c3ccc(S(=O)(=O)Nc4ccccc4)cc3C[C@@H]12,MIC,[1],> 64 µg/mL
same,MIC,[2],> 64 µg/mL
same,MIC,[3],> 64 µg/mL
same,MIC,[4],> 32 µg/mL
same,MIC,[5],> 64 µg/mL
same,MIC,[6],> 64 µg/mL
CC(=O)NC[C@@H]1OC(=O)N2c3ccc(-c4cccnc4)cc3CC[C@@H]12,MIC,[1],32 µg/mL
same,MIC,[2],16 µg/mL
same,MIC,[3],16 µg/mL
same,MIC,[4],> 32 µg/mL
same,MIC,[5],32 µg/mL
same,MIC,[6],16 µg/mL
CC(=O)NC[C@@H]1OC(=O)N2c3ccc(-c4cccnc4)cc3C[C@@H]12,ED50,[7],4.4 mg/kg
same,MIC,[1],4 µg/mL
same,MIC,[3],2 µg/mL
same,ED50,[11],9.4 mg/kg
same,MIC,[4],2 µg/mL
same,MIC,[5],2 µg/mL
same,MIC,[6],2 µg/mL
CC(=O)NC[C@@H]1OC(=O)N2c3ccc(S(=O)(=O)N4CCOCC4)cc3C[C@@H]12,MIC,[1],> 64 µg/mL
same,MIC,[2],> 64 µg/mL
same,MIC,[3],> 64 µg/mL
same,MIC,[4],> 32 µg/mL
same,MIC,[5],> 64 µg/mL
same,MIC,[6],> 64 µg/mL
CC(=O)NC[C@@H]1OC(=O)N2c3ccc(-c4cncnc4)cc3C[C@@H]12,MIC,[1],8 µg/mL
same,MIC,[3],4 µg/mL
same,ED50,[11],11.4 mg/kg
same,MIC,[4],8 µg/mL
same,MIC,[5],4 µg/mL
same,MIC,[6],4 µg/mL
CC(=O)NC[C@@H]1OC(=O)N2c3ccc(-c4ccncc4)cc3C[C@@H]12,ED50,[7],16.5 mg/kg
same,ED50,[8],6.1 mg/kg
same,MIC,[4],8 µg/mL
same,MIC,[5],2 µg/mL
CC(=O)NC[C@H]1CN(c2ccc(N3CCOCC3)c(F)c2)C(=O)O1 [LINEZOLID],ED50,[11],2 mg/kg
same,MIC,[4],4 µg/mL
same,MIC,[6],1 µg/mL
CC(=O)NC[C@@H]1OC(=O)N2c3ccc(-c4cccnc4)cc3C[C@@H]12.Cl,MIC,[1],2 µg/mL
same,MIC,[2],0.5 µg/mL
same,MIC,[3],2 µg/mL
same,ED50,[11],6 mg/kg
same,MIC,[4],4 µg/mL
same,MIC,[5],2 µg/mL
same,MIC,[6],1 µg/mL
CCNS(=O)(=O)c1ccc2c(c1)C[C@H]1[C@H](CNC(C)=O)OC(=O)N21,MIC,[1],> 64 µg/mL
same,MIC,[2],> 64 µg/mL
same,MIC,[3],> 64 µg/mL
same,MIC,[4],> 32 µg/mL
same,MIC,[5],> 64 µg/mL
same,MIC,[6],> 64 µg/mL
CC(=O)NC[C@H]1CN(c2ccc(N3CCOCC3)cc2)C(=O)O1,MIC,[1],4 µg/mL
same,MIC,[2],1 µg/mL
same,MIC,[3],4 µg/mL
same,MIC,[4],4 µg/mL
same,MIC,[5],4 µg/mL
same,MIC,[6],2 µg/mL
CC(=O)NC[C@@H]1OC(=O)N2c3ccc(S(=O)(=O)N4CCCCC4)cc3C[C@@H]12,MIC,[1],> 64 µg/mL
same,MIC,[2],> 64 µg/mL
same,MIC,[3],> 64 µg/mL
same,MIC,[4],> 32 µg/mL
same,MIC,[5],> 64 µg/mL
same,MIC,[6],> 64 µg/mL
CC(=O)NC[C@@H]1OC(=O)N2c3ccc(S(=O)(=O)N(C)CCCO)cc3C[C@@H]12,MIC,[1],> 64 µg/mL
same,MIC,[2],> 64 µg/mL
same,MIC,[3],> 64 µg/mL
same,MIC,[4],> 32 µg/mL
same,MIC,[5],> 64 µg/mL
same,MIC,[6],> 64 µg/mL
CC(=O)NC[C@@H]1OC(=O)N2c3ccc(S(C)(=O)=O)cc3C[C@@H]12,MIC,[1],64 µg/mL
same,MIC,[2],16 µg/mL
same,MIC,[3],32 µg/mL
same,MIC,[4],> 32 µg/mL
same,MIC,[5],64 µg/mL
same,MIC,[6],64 µg/mL
CC(=O)NC[C@@H]1OC(=O)N2c3ccc(C(C)=O)cc3CC[C@H]12,MIC,[1],> 16 µg/mL
same,MIC,[2],> 16 µg/mL
same,MIC,[3],> 16 µg/mL
same,MIC,[4],> 16 µg/mL
same,MIC,[5],> 16 µg/mL
same,MIC,[6],> 16 µg/mL
CC(=O)NC[C@@H]1OC(=O)N2c3ccc(S(N)(=O)=O)cc3C[C@@H]12,MIC,[1],> 64 µg/mL
same,MIC,[2],> 64 µg/mL
same,MIC,[3],> 64 µg/mL
same,MIC,[4],> 32 µg/mL
same,MIC,[5],> 64 µg/mL
same,MIC,[6],> 64 µg/mL
CC(=O)NC[C@@H]1OC(=O)N2c3ccc(S(=O)(=O)NC4CCCC4)cc3C[C@@H]12,MIC,[1],> 64 µg/mL
same,MIC,[2],> 64 µg/mL
same,MIC,[3],> 64 µg/mL
same,MIC,[4],> 32 µg/mL
same,MIC,[5],> 64 µg/mL
same,MIC,[6],> 64 µg/mL
CC(=O)NC[C@@H]1OC(=O)N2c3ccc(S(=O)(=O)NCc4ccccc4)cc3C[C@@H]12,MIC,[1],> 64 µg/mL
same,MIC,[2],> 64 µg/mL
same,MIC,[3],> 64 µg/mL
same,MIC,[4],> 32 µg/mL
same,MIC,[5],> 64 µg/mL
same,MIC,[6],> 64 µg/mL
CC(=O)NC[C@@H]1OC(=O)N2c3ccc(C(C)=O)cc3C[C@H]12,MIC,[1],> 16 µg/mL
same,MIC,[2],> 16 µg/mL
same,MIC,[3],> 16 µg/mL
same,MIC,[4],> 16 µg/mL
same,MIC,[5],> 16 µg/mL
same,MIC,[6],> 16 µg/mL
